Data taken from PubChem BioAssay AID1259407 (Chemical Carcinogenesis Research Information System (CCRIS), 2018).
Active and inactive are the calls of the source. How the calls were made is not given here.

System: CCRIS mutagenicity, Ames/micronucleus/aberration tests
Assay: CCRIS mutagenicity studies
[1] = Test System: AMES SALMONELLA TYPHIMURIUM, Strain/Indicator: TA98, Metabolic Activation: NONE, Method: STANDARD PLATE
[2] = Test System: AMES SALMONELLA TYPHIMURIUM, Strain/Indicator: TA100, Metabolic Activation: NONE, Method: STANDARD PLATE
[3] = Test System: AMES SALMONELLA TYPHIMURIUM, Strain/Indicator: TA1535, Metabolic Activation: NONE, Method: STANDARD PLATE
[4] = Test System: AMES SALMONELLA TYPHIMURIUM, Strain/Indicator: TA1537, Metabolic Activation: NONE, Method: STANDARD PLATE
[5] = Test System: AMES SALMONELLA TYPHIMURIUM, Strain/Indicator: TA1538, Metabolic Activation: NONE, Method: STANDARD PLATE
[6] = Test System: AMES SALMONELLA TYPHIMURIUM, Strain/Indicator: TA98, Metabolic Activation: RAT, LIVER, S-9, AROCLOR 1254, Method: STANDARD PLATE
[7] = Test System: AMES SALMONELLA TYPHIMURIUM, Strain/Indicator: TA100, Metabolic Activation: RAT, LIVER, S-9, AROCLOR 1254, Method: STANDARD PLATE
[8] = Test System: AMES SALMONELLA TYPHIMURIUM, Strain/Indicator: TA1535, Metabolic Activation: RAT, LIVER, S-9, AROCLOR 1254, Method: STANDARD PLATE
[9] = Test System: AMES SALMONELLA TYPHIMURIUM, Strain/Indicator: TA1537, Metabolic Activation: RAT, LIVER, S-9, AROCLOR 1254, Method: STANDARD PLATE
[10] = Test System: AMES SALMONELLA TYPHIMURIUM, Strain/Indicator: TA1538, Metabolic Activation: RAT, LIVER, S-9, AROCLOR 1254, Method: STANDARD PLATE

C1CSCCO1
mutagenic call [1]: inactive; negative
mutagenic call (Test System: AMES SALMONELLA TYPHIMURIUM, Strain/Indicator: TA98, Metabolic Activation: S-9, Method: STANDARD PLATE): inactive; negative
mutagenic call [2]: inactive; negative
mutagenic call (Test System: AMES SALMONELLA TYPHIMURIUM, Strain/Indicator: TA100, Metabolic Activation: S-9, Method: STANDARD PLATE): inactive; negative
mutagenic call [3]: inactive; negative
mutagenic call (Test System: AMES SALMONELLA TYPHIMURIUM, Strain/Indicator: TA1535, Metabolic Activation: S-9, Method: STANDARD PLATE): inactive; negative
mutagenic call [4]: inactive; negative
mutagenic call (Test System: AMES SALMONELLA TYPHIMURIUM, Strain/Indicator: TA1537, Metabolic Activation: S-9, Method: STANDARD PLATE): inactive; negative
mutagenic call [5]: inactive; negative
mutagenic call (Test System: AMES SALMONELLA TYPHIMURIUM, Strain/Indicator: TA1538, Metabolic Activation: S-9, Method: STANDARD PLATE): inactive; negative

ON=C1CCCCC1
mutagenic call (Test System: AMES SALMONELLA TYPHIMURIUM, Strain/Indicator: TA97, Metabolic Activation: HAMSTER, LIVER, S-9, AROCLOR 1254 (30%), Method: PREINCUBATION): inactive; negative
mutagenic call (Test System: AMES SALMONELLA TYPHIMURIUM, Strain/Indicator: TA97, Metabolic Activation: NONE, Method: PREINCUBATION): inactive; negative
mutagenic call (Test System: AMES SALMONELLA TYPHIMURIUM, Strain/Indicator: TA97, Metabolic Activation: RAT, LIVER, S-9, AROCLOR 1254 (30%), Method: PREINCUBATION): inactive; negative
mutagenic call (Test System: AMES SALMONELLA TYPHIMURIUM, Strain/Indicator: TA98, Metabolic Activation: HAMSTER, LIVER, S-9, AROCLOR 1254 (30%), Method: PREINCUBATION): inactive; negative
mutagenic call (Test System: AMES SALMONELLA TYPHIMURIUM, Strain/Indicator: TA98, Metabolic Activation: HAMSTER, LIVER, S-9, AROCLOR 1254, Method: STANDARD PLATE): inactive; negative
mutagenic call (Test System: AMES SALMONELLA TYPHIMURIUM, Strain/Indicator: TA98, Metabolic Activation: NONE, Method: PREINCUBATION): inactive; negative
mutagenic call [1]: inactive; negative
mutagenic call (Test System: AMES SALMONELLA TYPHIMURIUM, Strain/Indicator: TA98, Metabolic Activation: RAT, LIVER, S-9, AROCLOR 1254 (30%), Method: PREINCUBATION): inactive; negative
mutagenic call [6]: inactive; negative
mutagenic call (Test System: AMES SALMONELLA TYPHIMURIUM, Strain/Indicator: TA100, Metabolic Activation: HAMSTER LIVER S-9, AROCLOR 1254, Method: PREINCUBATION): inactive; negative
mutagenic call (Test System: AMES SALMONELLA TYPHIMURIUM, Strain/Indicator: TA100, Metabolic Activation: HAMSTER, LIVER, S-9, AROCLOR 1254 (30%), Method: PREINCUBATION): inactive; negative
mutagenic call (Test System: AMES SALMONELLA TYPHIMURIUM, Strain/Indicator: TA100, Metabolic Activation: HAMSTER, LIVER, S-9, AROCLOR 1254, Method: STANDARD PLATE): inactive; negative
mutagenic call (Test System: AMES SALMONELLA TYPHIMURIUM, Strain/Indicator: TA100, Metabolic Activation: NONE, Method: PREINCUBATION): inactive; negative
mutagenic call [2]: inactive; negative
mutagenic call (Test System: AMES SALMONELLA TYPHIMURIUM, Strain/Indicator: TA100, Metabolic Activation: RAT, LIVER, S-9, AROCLOR 1254 (30%), Method: PREINCUBATION): inactive; negative
mutagenic call [7]: inactive; negative
mutagenic call (Test System: AMES SALMONELLA TYPHIMURIUM, Strain/Indicator: TA1535, Metabolic Activation: HAMSTER LIVER S-9, AROCLOR 1254, Method: PREINCUBATION): active; positive
mutagenic call (Test System: AMES SALMONELLA TYPHIMURIUM, Strain/Indicator: TA1535, Metabolic Activation: HAMSTER, LIVER, S-9, AROCLOR 1254 (5,10 OR 30%), Method: PREINCUBATION): active; positive
mutagenic call (Test System: AMES SALMONELLA TYPHIMURIUM, Strain/Indicator: TA1535, Metabolic Activation: HAMSTER, LIVER, S-9, AROCLOR 1254, Method: STANDARD PLATE): inactive; negative
mutagenic call [3]: inactive; negative
mutagenic call (Test System: AMES SALMONELLA TYPHIMURIUM, Strain/Indicator: TA1535, Metabolic Activation: RAT, LIVER, S-9, AROCLOR 1254 (30%), Method: PREINCUBATION): inactive; negative
mutagenic call [8]: inactive; negative
mutagenic call (Test System: AMES SALMONELLA TYPHIMURIUM, Strain/Indicator: TA1537, Metabolic Activation: HAMSTER, LIVER, S-9, AROCLOR 1254, Method: STANDARD PLATE): inactive; negative
mutagenic call [4]: inactive; negative
mutagenic call [9]: inactive; negative
mutagenic call (Test System: AMES SALMONELLA TYPHIMURIUM, Strain/Indicator: TA1538, Metabolic Activation: HAMSTER, LIVER, S-9, AROCLOR 1254, Method: STANDARD PLATE): inactive; negative
mutagenic call [5]: inactive; negative
mutagenic call [10]: inactive; negative
mutagenic call (Test System: MOUSE LYMPHOMA, Strain/Indicator: L5178Y (TK+/TK-), Metabolic Activation: NONE, Method: SUSPENSION/PLATE): active; positive. reevaluation of results: positive
mutagenic call (Test System: MOUSE LYMPHOMA, Strain/Indicator: L5178Y (TK+/TK-), Metabolic Activation: RAT, LIVER, S-9, AROCLOR 1254, Method: SUSPENSION/PLATE): inactive; negative. reevaluation of results: negative

c1ccc2cc3c(cc2c1)c1c(c2ccccc23)O1
mutagenic call [2]: active; positive

CC(C)CCC[C@@H](C)[C@H]1CC[C@H]2[C@@H]3C[C@@H]4N(N5C(=O)c6ccccc6C5=O)[C@@]45C[C@@H](Cl)CC[C@]5(C)[C@H]3CC[C@]12C (stereo not given in full)
mutagenic call (Test System: AMES SALMONELLA TYPHIMURIUM, Strain/Indicator: TA97A, Metabolic Activation: NONE, Method: STANDARD PLATE): inactive; negative
mutagenic call [2]: inactive; negative
mutagenic call (Test System: AMES SALMONELLA TYPHIMURIUM, Strain/Indicator: TA102, Metabolic Activation: NONE, Method: STANDARD PLATE): inactive; negative
mutagenic call (Test System: AMES SALMONELLA TYPHIMURIUM, Strain/Indicator: TA104, Metabolic Activation: NONE, Method: STANDARD PLATE): inactive; negative

C[C@]12C=CC3=C4CCC(=O)C=C4CC[C@H]3[C@@H]1CC[C@H]2O
mutagenic call [1]: inactive; negative
mutagenic call [6]: inactive; negative
mutagenic call [2]: inactive; negative
mutagenic call [7]: inactive; negative
mutagenic call [3]: inactive; negative
mutagenic call [8]: inactive; negative
mutagenic call [4]: inactive; negative
mutagenic call [9]: inactive; negative
mutagenic call [5]: inactive; negative
mutagenic call [10]: inactive; negative
mutagenic call (Test System: CHO/HGPRT, Strain/Indicator: CHO-K1-BH4, Metabolic Activation: NONE, Method: STANDARD PLATE): inactive; negative
mutagenic call (Test System: CHO/HGPRT, Strain/Indicator: CHO-K1-BH4, Metabolic Activation: RAT, LIVER, S-9, AROCLOR 1254, Method: STANDARD PLATE): inactive; negative

CNC(=O)Oc1cccc2c1OC(C)(C)C2O (stereo not given)
mutagenic call (End Point: IN VIVO MICRONUCLEUS, Test System: BONE MARROW POLYCHROMATIC ERYTHROCYTES, Species: MOUSE, Strain/Sex: KM/MALE, FEMALE, Route: IP INJECTION): active; positive

CCOC(=O)c1cc2cc3c4c(c2oc1=O)CCCN4CCC3
mutagenic call [5]: inactive; negative
mutagenic call [10]: inactive; negative
